According to the supplement of paper PMC4862054:

What was measured:
Details in all cases: incubation time: 72 h
[1] = test system: MDA-MB-231; assay: drug sensitivity score (DSS), CellTiter-Blue viability (DSS (AUC-based score)); higher = stronger viability inhibition; extreme values may be limits of the assay
In short: (§1)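 Into 384-well plates carrying compound in a 5- or 9-concentration series went 20 µl of breast cancer cell suspension, followed by 72 h of incubation. Adding 2.5 µl CellTiter-Blue per well and incubating 2 h at 37 °C preceded fluorescence measurement at 560/590 nm. After normalisation of each plate to 0.1 % DMSO and a positive kill control, dose-response curves were fitted and the area beneath them taken as the drug sensitivity score.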

[2] = test system: MDA-MB-468; assay: as above
In short: as §1

[3] = test system: BT-474; assay: as above
In short: as §1

[4] = test system: SK-BR-3; assay: as above
In short: as §1

[5] = test system: HCC1143; assay: normalised viability (% of control), CellTiter-Blue; higher = more viable cells (about 100 = DMSO control)
In short: (§2)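 The reported quantity is normalised viability at a single listed concentration of the series. Compound in 5 µl medium was pre-dispensed into 384-well plates and 20 µl of breast cancer cell suspension was added for 72 h. A 2 h, 37 °C CellTiter-Blue step (2.5 µl) preceded fluorescence reading at 560/590 nm, and plates were normalised to vehicle (100) and a positive kill control (0).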

[6] = test system: HCC1937; assay: as above
In short: as §2

[7] = test system: MDA-MB-231; assay: as above
In short: as §2

[8] = test system: CAL-85-1; assay: as above
In short: as §2

[9] = test system: MFM-223; assay: as above
In short: as §2

[10] = test system: DU-4475; assay: as above
In short: as §2

[11] = test system: HCC1599; assay: as above
In short: as §2

[12] = test system: BT-549; assay: as above
In short: as §2

[13] = test system: MDA-MB-436; assay: as above
In short: as §2

[14] = test system: HDQ-P1; assay: as above
In short: as §2

[15] = test system: CAL-51; assay: as above
In short: as §2

[16] = test system: MDA-MB-468; assay: as above
In short: as §2

[17] = test system: BT-474; assay: as above
In short: as §2

[18] = test system: CAL-148; assay: as above
In short: as §2

[19] = test system: SK-BR-3; assay: as above
In short: as §2

[20] = test system: Hs578T; assay: as above
In short: as §2

[21] = test system: CAL-120; assay: as above
In short: as §2

[22] = test system: MDA-MB-453; assay: as above
In short: as §2

C=C(c1ccc(C(=O)O)cc1)c1cc2c(cc1C)C(C)(C)CCC2(C)C [Bexarotene]
Details	drug sensitivity score
[1]	0
[2]	0
[3]	0
[4]	0

normalised viability [%]
Details	3 nM	10 nM	30 nM	100 nM	1000 nM	10000 nM
[5]	–	123	–	–	117	104
[6]	–	82.3	–	–	82.2	82.1
[7]	–	91.2	–	–	86.5	105
[8]	94.9	–	91.6	92	–	–
[9]	–	101	–	–	103	96.5
[10]	98.7	–	102	103	–	–
[11]	–	81.2	–	–	72.2	82.1
[12]	–	89.5	–	–	75.6	74.5
[13]	–	90.1	–	–	97.2	81
[14]	89.3	–	84.9	102	–	–
[15]	82	–	88.7	88.5	–	–
[16]	–	108	–	–	100	110
[17]	–	103	–	–	95.7	97.7
[18]	110	–	92.7	99.8	–	–
[19]	–	100	–	–	89.8	83.1
[20]	–	99	–	–	105	75.3
[21]	–	101	–	–	108	106
[22]	91	–	91.3	74.5	–	–

COc1cc([C@@H]2c3cc4c(cc3[C@@H](O[C@@H]3O[C@@H]5CO[C@@H](C)O[C@H]5[C@H](O)[C@H]3O)[C@H]3COC(=O)[C@H]23)OCO4)cc(OC)c1O [Etoposide]
Details	drug sensitivity score
[1]	3.4
[2]	6.16
[3]	0.298
[4]	11.9

normalised viability [%]
Details	3 nM	10 nM	30 nM	100 nM	1000 nM	10000 nM
[5]	–	85.7	–	–	66.6	47.3
[6]	–	78.5	–	–	64.9	38.9
[7]	–	121	–	–	82.7	66.1
[8]	99.9	–	93.9	102	–	–
[9]	–	99.2	–	–	107	81.6
[10]	108	–	72.3	61.3	–	–
[11]	–	99.1	–	–	94	72.3
[12]	–	84.9	–	–	56	46.7
[13]	–	99.8	–	–	84.1	55.2
[14]	90.8	–	91	33.6	–	–
[15]	98.6	–	85.8	77.3	–	–
[16]	–	107	–	–	73	35.9
[17]	–	116	–	–	96.4	87.3
[18]	88.6	–	81	85.7	–	–
[19]	–	98.2	–	–	46.5	12.9
[20]	–	94.6	–	–	77.1	52.4
[21]	–	92.5	–	–	73.6	59.1
[22]	109	–	107	99.8	–	–

CO[C@H]1/C=C\C=C(/C)C(=O)NC2=CC(=O)C(NCCN(C)C)=C(C[C@@H](C)C[C@H](OC)[C@H](O)[C@@H](C)/C=C(\C)[C@@H]1OC(N)=O)C2=O [Alvespimycin]
Details	drug sensitivity score
[1]	12.2
[2]	10.4
[3]	14.6
[4]	20.9

normalised viability [%]
Details	0.3 nM	1 nM	3 nM	10 nM	100 nM	1000 nM
[5]	–	103	–	–	46.8	37.7
[6]	–	110	–	–	40.7	29
[7]	–	99	–	–	35.2	28.3
[8]	111	–	85.5	95.1	–	–
[9]	–	97.4	–	–	27.3	23.4
[10]	99	–	93.1	84.5	–	–
[11]	–	72.9	–	–	43	31.3
[12]	–	104	–	–	33.5	21.2
[13]	–	90.9	–	–	28.9	20.4
[14]	99.3	–	102	112	–	–
[15]	97	–	96	86.8	–	–
[16]	–	111	–	–	44.6	29.3
[17]	–	116	–	–	28.3	27.8
[18]	107	–	102	101	–	–
[19]	–	97.7	–	–	19	16.3
[20]	–	102	–	–	43.6	40.1
[21]	–	108	–	–	26.7	17.4
[22]	115	–	87.4	61.7	–	–
